From patent US6465007B1, “Transgene expression in polarized cells” (Genzyme Corporation, priority 1998, dated 2002)

Tests used:
[1] = Stabilization of cationic lipid:pDNA complexes by PEG-containing lipid; type: physicochemical; conditions: 1.14 mol % relative to total lipid
Procedure: For example, at 1.14 mol % DMPE-PEG5000 (relative to the amount of total lipid), cationic lipid:pDNA complexes could be stabilized at pDNA concentrations exceeding 20 mM. Without PEG-containing lipids, a salt excipient, which is not preferred since an ionic excipient also depresses transfection activity, is required to maintain the lipid:pDNA ratio of the complex during certain methods such aerosolization. For more information regarding use of PEG derivatives the following references are specifically incorporated by reference: Simon J. Eastman et al., Human Gene Therapy, 8, pp. 765-773 (1997); Simon J. Eastman et al. Human Gene Therapy, p. 8, pp. 313-322 (1997).

[2] = tested on: mouse nose; conditions: cited from earlier work
[3] = tested on: CF patients; conditions: cited from earlier work
[4] = tested on: polarized NHBE cells; test: Binding and internalization of cationic lipid:pDNA complexes (TOTO-1 label, trypan blue quenching); conditions: Table 1; grades Very Effective / Mildly Effective
Procedure: Cells were incubated with TOTO-1 or Rh-PE labeled complexes at 37° C. for the times noted in the figure legends. Following incubation, cells were washed 7 times with cold PBS and then fixed in 2% paraformadehyde for 20 min at 4° C. The membrane of the insert was removed and mounted using immuno-mount (Shandon, Pittsburgh, Pa.) containing 2 μg/ml DAPI (Molecular Probes). Bound and internalized complexes were observed under a fluorescence microscope (Olympus, AX-70). To observe only internalized complexes, cells were washed 2 times with cold PBS and then the fluorescence of surface bound complexes was quenched by a 10 min incubation with trypan blue (1 mg/ml; Diagnostic Systems, Inc., Gibbstown, N.J.) on ice. Cells were then washed an additional 5 times with cold PBS, fixed and mounted.
Polarized NHBE cells were cultured using a modified procedure based on the methods described by Yamaya et al., American Journal of Physiology, 265:L170-L177 (1993), Jiang et al., Science, 262:424-427 (1993) and Gray et al., American Journal of Respiratory Cell & Molecular Biology, 14:104-112 (1996). Briefly, first passage NHBE cells were plated at a density of 2.5×10^5 cells/cm^2 onto inserts (Millicell-PCF, 0.4 μm pore size, Millipore) coated with human placental collagen (Sigma). The culture medium was the same as that described above for growing NHBE cells as islands. Cultures were maintained under air-liquid interface conditions starting at day 3 following the initial seeding. Cells were considered ready for use when the trans-epithelial resistance was •1000 Ωcm^2.

[5] = tested on: mouse trachea; test: Intranasal instillation of Ad2βgal-4, X-gal staining of airways; type: in vivo
Procedure: Female BALB/c mice 9-12 weeks of age were purchased from Taconic (Germantown, N.Y.). In some groups, mice were instilled intranasally with 25 μl of a solution containing EGTA (pH 7.5), followed by 25 μl of 5% sucrose in PBS containing Adβgal-4 (2×10^8 IU). In other groups, mice were co-instilled with 25 μl of a solution prepared by mixing equal volumes of a 2× (4×10^8 IU/25 μl) Ad2βgal-4 solution in 10% sucrose with 2×EGTA prior to instillation.
Cytochemical localization of Ogal expression in the trachea was observed using 5-bromo-4-chloro-3-indolyl-β-D-galactopyranoside (X-gal; Sigma). In brief, cannulated mouse lungs were fixed for 10 min by infusion of a fixing solution (2% paraformaldehyde and 0.2% glutaraldehyde in PBS). The lungs were then rinsed twice with 50 mM glycine in PBS, filled with X-gal solution, and stained overnight. Staining was stopped by transfering the samples into the fixing solution.
Trachea with staining levels were defined on a scale of 0 to 3, 0 indicating no cells staining for βgal, and a value of 3 indicating a large number of cells positive for the transgene. To evaluate the effect of EGTA concentration on AdV-mediated gene transfer in the trachea, mice were pre-treated with various concentrations of EGTA 0.5 h before AdV instillation. In some animals, AdV and EGTA were co-instilled. To exclude the possibility that any observed enhancement of expression was due to a hyperosmotic effect of the EGTA solution, a 20% mannitol solution (osmolarity similar to 0.4M EGTA) was included as a control in both the pre-treatment and co-instillation models.

[6] = tested on: NHBE cells; test: Cell proliferation assay, [methyl-3H]-thymidine incorporation into DNA; type: cell-based, human
Procedure: The proliferation of NHBE cells was assessed by measuring the amount of [methyl-^3H] thymidine incorporation into DNA (Fasbender et al., Gene Therapy, 4:1173-1180, 1997). [Methyl-^3H] thymidine (5 μCi/ml; Amersham, Arlington Heights, Ill.) was added to culture medium on the basal side of polarized NHBE cells which had been pre-treated with either Opti-MEM or Ca^2+-free medium. After 4 h, both groups of cells were washed 3 times with PBS and then lysed in a buffer containing 0.2% SDS, 100 mM Tris (pH=7.0), 5 mM EDTA, 200 mM NaCl, and 0.5 mg/ml proteinase K. The lysate was incubated at 65° C. for 30 min, microcentrifuged for 5 min and the supernatant placed into a fresh tube. An equal volume of isopropanol was added to precipitate the DNA. The precipitated DNA pellet was washed twice with 70% ethanol, dried, and resuspended in a 10 mM Tris-HCl, 0.5 mM EDTA buffer, pH 8.0. The DNA concentration was determined using A260/280 measurements. Tritium counts were measured using a Beckman LS6500 scintillation counter.
(§1) To inhibit NHBE cell proliferation, aphidicolin (0.5 μg/ml; Sigma) was added to culture medium on the basal side of the polarized NHBE cells for 18 h at 37° C. The cells were then transfected as described above except that the concentrations of cationic lipid and pDNA were 80 and 107 μM, respectively. After transfection, aphidicolin was present in the culture medium until the cells were harvested. […] Retinoic acid enhanced the inhibitory effect of aphidicolin on cell proliferation (Chou, R. H. et al., Cell & Tissue Kinetics, 18:387-97, 1985).

[7] = tested on: polarized NHBE cells; test: In vitro transfection with GL-67:pCF1-SEAP, secreted alkaline phosphatase in apical supernatant; type: cell-based, human; conditions: 0.5 μg/ml, 18 h before and after transfection, with or without Ca2+-free medium; FIG. 2A
Procedure: Prior to transfection, polarized NHBE cells on inserts were incubated in either Opti-MEM, Opti-MEM containing 0.1% EGTA, or in Ca^2+-free media (Gibco) in both sides of the insert for 30 min at 37° C. The cells were then washed 3 times with Opti-MEM, and incubated with unlabeled GL-67:pCF1-SEAP (40:53 μM) for 4 h at 37° C., after which they were washed 3 times with Opti-MEM. One ml of culture medium then was added to the outside of the insert (basal side) and 100 μl added to the inside of the insert (apical side). The supernatant from the apical side was collected on day 2 after transfection, heated at 65° C. for 1 h to denature endogenous alkaline phosphatases (Berger et al., Gene, 1988), and assayed in triplicate for secreted alkaline phosphatase (SEAP) activity using an alkaline phosphatase reagent (Sigma) and human placental alkaline phosphatase (Calbiochem, La Jolla, Calif.) as a standard.
as §1

[8] = 0.5 μg/ml in culture medium containing 50 nM retinoic acid

For “polyethylene glycol 5000-dimyristoylphosphatidylethanolamine [DMPE-PEG5000]”, which “pDNA concentration at which cationic lipid:pDNA complexes could be stabilized” value [1] is on record?
The value was “exceeding 20 mM”.

For polidocanol, which “AdV-mediated gene expression in respiratory epithelial cells” value [2] is on record?
The value was “enhanced AdV-mediated gene expression”.

What does the source list for `O=C(O)CN(CCN(CC(=O)O)CC(=O)O)CC(=O)O` [EDTA, Ethylenediaminetetraacetic acid]?
toxic side-effects ([3]; 0.2 g in 10 ml injected, or 0.6 g in 300 ml nebulized over 24 h, via tracheostomy once per day for 3 days): No toxic side-effects were noted; adverse effects ([3]; children with CF, aerosol of 0.05M 3 times/day for 2 weeks): no adverse effects; tolerability ([3]; children with CF, aerosol of 0.1 M 3 times/day for 2 weeks): Three out of ten could not tolerate; respiratory function ([3]; same phase I trial): remained unchanged; serum calcium and magnesium levels ([3]; same phase I trial): remained normal; Effects of Tight Junction Disrupting Compounds on Cationic Amphiphile: DNA Complex Binding [4]: Very Effective

For `OC[C@@H](O)[C@@H](O)[C@H](O)[C@H](O)CO` [mannitol], which “X-gal staining in the trachea” value ([5]; 20% pre-treatment, compared with AdV alone, FIG. 4) is on record?
Its value is “not different”.

And the “enhancement in gene transfer” value ([5]; pre-treating with hyperosmotic solution, FIGS. 4 & 5A)?
Its value is “No comparible enhancements”.

Which “inhibition of proliferation of NHBE cells” value [6, 8] does the source give for `C[C@@]1(CO)[C@H](O)CC[C@@]2(C)[C@H]1CC[C@H]1C[C@@H]3C[C@@]12CC[C@]3(O)CO` [aphidicolin] here?
The value was “sufficient to inhibit proliferation”.

And the toxicity [6, 8]?
Its toxicity is “minimal toxicity”.

What about the “[methyl-3H]-thymidine incorporation” value ([6]; NHBE cells grown on plastic, presence of aphidicolin) of the same compound?
The value was 6,600±600 cpm/μg DNA.

What about the “effect on gene expression from polarized NHBE cells” value [7] of the same compound?
The value was “no effect on gene expression”.

For `CCCCCCCCCC(=O)O[C@H](CC(=O)[O-])C[N+](C)(C)C` [Decanoylcamitine, decanoylcarnitine], which “Effects of Tight Junction Disrupting Compounds on Cationic Amphiphile: DNA Complex Binding” value (from here on “Effects … DNA Complex Binding”) [4] is on record?
Its value is “Mildly Effective”.

With `CCCCCCCCCC(=O)[O-].[Na+]` [Sodium Caprate, sodium caprate] as the compound, how does the “Effects … DNA Complex Binding” value [4] read?
The value was “Mildly Effective”.

With `C[C@H](CCC(=O)NCC(=O)[O-])[C@H]1CC[C@H]2[C@@H]3[C@H](O)C[C@@H]4C[C@H](O)CC[C@]4(C)[C@H]3C[C@H](O)[C@]12C.[Na+]` [Sodium glycocholate, sodium glycocholate] as the compound, how does the “Effects … DNA Complex Binding” value [4] read?
Its value is “Mildly Effective”.
